Values quoted from earlier work in patent US20220295833A1, “SWEETENER BLENDS WITH IMPROVED TASTE” (The Coca-Cola Company, priority 2019, published 2022).

- aqueous solubility: about 0.8 wt %
Compound: C=C1C[C@@]23CC[C@H]4[C@@](C)(CCC[C@@]4(C)C(=O)O[C@@H]4O[C@H](CO)[C@@H](O)[C@H](O)[C@H]4O)[C@@H]2CC[C@]1(O[C@@H]1O[C@H](CO)[C@@H](O)[C@H](O[C@@H]2O[C@H](CO)[C@@H](O)[C@H](O)[C@H]2O)[C@H]1O[C@@H]1O[C@H](CO)[C@@H](O)[C@H](O)[C@H]1O)C3 [Rebaudioside A]
